Assay results from US9179694B2, “Method and composition for enhancing milk production and milk component concentrations” (PURINA ANIMAL NUTRITION LLC, priority 2003, dated 2015).
Marks after values point to notes of the source that are not given here.

Experiment: True protein content of produced milk in sorbitol feeding trials
Assay type: in vivo, Holstein cows
Conditions: for True Protein in Produced Milk: Pre-Partum Trial #1 (75/0/0 g/day in wk −3..−1/+1..+4/+5..+8)
Description: To determine the percent of total protein, wet basis, in a sample, the actual weight of total protein is determined in accordance with Method #991.20 (33.2.11) of Official Methods of Analysis, Association of Official Analytical Chemists (AOAC) (16th Ed., 1995). The value determined by the above method yields “total Kjeldahl nitrogen,” which is equivalent to “total protein” since the above method incorporates a factor that accounts for the average amount of nitrogen in protein. Since any and all total Kjeldahl nitrogen determinations presented herein are based on the above method, the terms “total Kjeldahl nitrogen” and “total protein” are used interchangeably herein. Furthermore, those skilled in the art will recognize that the term “total Kjeldahl nitrogen” is generally used in the art to mean “total protein” with the understanding that the factor has been applied. The weight percent total protein, wet basis, is calculated by dividing the actual weight of total protein by the actual weight of the sample. The weight percent of true protein, wet basis, for a particular sample is calculated after first determining the wet basis weight percent of total Kjeldahl nitrogen and the wet basis weight percent of non-protein nitrogen in the sample. The wet basis weight percent of total Kjeldahl nitrogen in the sample is determined using the method referenced above. The wet basis weight percent of non-protein nitrogen (NPN) in the sample is determined in accordance with Method #991.21 (33.2.12) of Official Methods of Analysis, Association of Official Analytical Chemists (AOAC) (16th Ed., 1995). The weight percent of true protein, wet basis, in the sample is then determined by subtracting the wet basis weight percent of non-protein nitrogen in the sample from the wet basis weight percent of total Kjeldahl nitrogen in the sample. Each cow of each of the six different trials (Control Trial #1, Control Trial #2, Pre-Partum Trial #1, Pre-Partum Trial #2, Pre/Post Trial #1, and Pre/Post Trial #2) was milked three times daily and the weight of produced milk by each cow was recorded at each milking. The milk from each cow was sampled once per week (⅓ of the sample volume from each of the three milkings occurring on the weekly milk sampling day) and was analyzed for true protein, total fat, lactose, and total solids, as detailed in the property determination and characterization techniques presented above. Additionally, samples of blood were periodically obtained from each cow during the four trials (Control Trial 2, Pre-Partum Trial #2, Pre/Post Trial #1, and Pre/Post Trial #2) encompassed in Example Two and were analyzed for non-esterified fatty acid (NEFA) content as detailed in the property determination and characterization techniques presented above. No NEFA analysis was conducted on the cows employed in Control Trial #1 or Pre-Partum Trial #1 that are the subject of Example One. Example One includes Control Trial #1 and Pre-Partum Trial #1. Both primiparious cows and multiparious cows were included in Control Trial #1 and Pre-Partum Trial #1. Five primiparious cows and fifteen multiparious cows were included in Control Trial #1; likewise, five primiparious cows and fifteen multiparious cows were included in Pre-Partum Trial #1. All cows included in Control Trial #1 and Pre-Partum Trial #1 were Holsteins. Example Two includes Control Trial #2, Pre-Partum Trial #2, Pre/Post Trial #1, and Pre/Post Trial #2. Only multiparious, Holstein cows were included in Control Trial #2, Pre-Partum Trial #1, Pre/Post Trial #1, and Pre/Post Trial #2. Eighteen multiparious cows were included in both Control Trial #2 and Pre-Partum Trial #2, while sixteen multiparious cows were included in Pre/Post Trial #1 and seventeen multiparious cows were included in Pre/Post Trial #2.

## OC[C@@H](O)[C@@H](O)[C@H](O)[C@@H](O)CO [sorbitol]
Multiparious cows, weeks +1 through +8
  True Protein in Produced Milk: 2.82 wt %
Primiparious cows, weeks +1 through +8
  True Protein in Produced Milk: 2.9 wt %
Pre-Partum Trial #1 (75 g/day wk −3..−1 only) versus Control Trial #1, primiparious cows, weeks +1 through +8
  increase in true protein concentration in the produced milk: 7.4%
Pre-Partum Trial #2 (75/0/100 g/day in wk −3..−1/+1..+4/+5..+8), multiparious cows, week +1
  True Protein Content of Produced Milk: 3.95 weight %
Pre-Partum Trial #2 (75/0/100 g/day in wk −3..−1/+1..+4/+5..+8), multiparious cows, week +2
  True Protein Content of Produced Milk: 3.14 weight %
Pre-Partum Trial #2 (75/0/100 g/day in wk −3..−1/+1..+4/+5..+8), multiparious cows, week +3
  True Protein Content of Produced Milk: 2.81 weight %
Pre-Partum Trial #2 (75/0/100 g/day in wk −3..−1/+1..+4/+5..+8), multiparious cows, week +4
  True Protein Content of Produced Milk: 2.71^ab weight %
Pre-Partum Trial #2 (75/0/100 g/day in wk −3..−1/+1..+4/+5..+8), multiparious cows, week +5
  True Protein Content of Produced Milk: 2.63 weight %
Pre-Partum Trial #2 (75/0/100 g/day in wk −3..−1/+1..+4/+5..+8), multiparious cows, week +6
  True Protein Content of Produced Milk: 2.62 weight %
Pre-Partum Trial #2 (75/0/100 g/day in wk −3..−1/+1..+4/+5..+8), multiparious cows, week +7
  True Protein Content of Produced Milk: 2.60 weight %
Pre-Partum Trial #2 (75/0/100 g/day in wk −3..−1/+1..+4/+5..+8), multiparious cows, week +8
  True Protein Content of Produced Milk: 2.56 weight %
Pre-Partum Trial #2 (75/0/100 g/day in wk −3..−1/+1..+4/+5..+8), multiparious cows, weeks +1 through +4
  True Protein Content of Produced Milk: 3.11 weight %
Pre-Partum Trial #2 (75/0/100 g/day in wk −3..−1/+1..+4/+5..+8), multiparious cows, weeks +1 through +8
  True Protein Content of Produced Milk: 2.86 weight %
Pre-Partum Trial #2 (75/0/100 g/day in wk −3..−1/+1..+4/+5..+8), multiparious cows, weeks +5 through +8
  True Protein Content of Produced Milk: 2.60 weight %
Pre/Post Trial #1 (150/125/100 g/day in wk −3..−1/+1..+4/+5..+8), multiparious cows, week +1
  True Protein Content of Produced Milk: 4.01 weight %
Pre/Post Trial #1 (150/125/100 g/day in wk −3..−1/+1..+4/+5..+8), multiparious cows, week +1, two-trial comparison with Control Trial #2 (Table 24)
  True Protein Content of Produced Milk: 4.01 weight %
Pre/Post Trial #1 (150/125/100 g/day in wk −3..−1/+1..+4/+5..+8), multiparious cows, week +2
  True Protein Content of Produced Milk: 3.17 weight %
Pre/Post Trial #1 (150/125/100 g/day in wk −3..−1/+1..+4/+5..+8), multiparious cows, week +2, two-trial comparison with Control Trial #2 (Table 24)
  True Protein Content of Produced Milk: 3.17 weight %
Pre/Post Trial #1 (150/125/100 g/day in wk −3..−1/+1..+4/+5..+8), multiparious cows, week +3
  True Protein Content of Produced Milk: 2.85 weight %
Pre/Post Trial #1 (150/125/100 g/day in wk −3..−1/+1..+4/+5..+8), multiparious cows, week +3, two-trial comparison with Control Trial #2 (Table 24)
  True Protein Content of Produced Milk: 2.85 weight %
Pre/Post Trial #1 (150/125/100 g/day in wk −3..−1/+1..+4/+5..+8), multiparious cows, week +4
  True Protein Content of Produced Milk: 2.73^ab weight %
Pre/Post Trial #1 (150/125/100 g/day in wk −3..−1/+1..+4/+5..+8), multiparious cows, week +4, two-trial comparison with Control Trial #2 (Table 24)
  True Protein Content of Produced Milk: 2.73 weight %
Pre/Post Trial #1 (150/125/100 g/day in wk −3..−1/+1..+4/+5..+8), multiparious cows, week +5
  True Protein Content of Produced Milk: 2.65 weight %
Pre/Post Trial #1 (150/125/100 g/day in wk −3..−1/+1..+4/+5..+8), multiparious cows, week +5, two-trial comparison with Control Trial #2 (Table 24)
  True Protein Content of Produced Milk: 2.65 weight %
Pre/Post Trial #1 (150/125/100 g/day in wk −3..−1/+1..+4/+5..+8), multiparious cows, week +6
  True Protein Content of Produced Milk: 2.61 weight %
Pre/Post Trial #1 (150/125/100 g/day in wk −3..−1/+1..+4/+5..+8), multiparious cows, week +6, two-trial comparison with Control Trial #2 (Table 24)
  True Protein Content of Produced Milk: 2.61 weight %
Pre/Post Trial #1 (150/125/100 g/day in wk −3..−1/+1..+4/+5..+8), multiparious cows, week +7
  True Protein Content of Produced Milk: 2.57 weight %
Pre/Post Trial #1 (150/125/100 g/day in wk −3..−1/+1..+4/+5..+8), multiparious cows, week +7, two-trial comparison with Control Trial #2 (Table 24)
  True Protein Content of Produced Milk: 2.57 weight %
Pre/Post Trial #1 (150/125/100 g/day in wk −3..−1/+1..+4/+5..+8), multiparious cows, week +8
  True Protein Content of Produced Milk: 2.65 weight %
Pre/Post Trial #1 (150/125/100 g/day in wk −3..−1/+1..+4/+5..+8), multiparious cows, week +8, two-trial comparison with Control Trial #2 (Table 24)
  True Protein Content of Produced Milk: 2.65 weight %
Pre/Post Trial #1 (150/125/100 g/day in wk −3..−1/+1..+4/+5..+8), multiparious cows, weeks +1 through +4
  True Protein Content of Produced Milk: 3.18 weight %
Pre/Post Trial #1 (150/125/100 g/day in wk −3..−1/+1..+4/+5..+8), multiparious cows, weeks +1 through +4, two-trial comparison with Control Trial #2 (Table 24)
  True Protein Content of Produced Milk: 3.18 weight %
Pre/Post Trial #1 (150/125/100 g/day in wk −3..−1/+1..+4/+5..+8), multiparious cows, weeks +1 through +8
  True Protein Content of Produced Milk: 2.90 weight %
Pre/Post Trial #1 (150/125/100 g/day in wk −3..−1/+1..+4/+5..+8), multiparious cows, weeks +1 through +8, two-trial comparison with Control Trial #2 (Table 24)
  True Protein Content of Produced Milk: 2.90 weight %
Pre/Post Trial #1 (150/125/100 g/day in wk −3..−1/+1..+4/+5..+8), multiparious cows, weeks +5 through +8
  True Protein Content of Produced Milk: 2.62 weight %
Pre/Post Trial #1 (150/125/100 g/day in wk −3..−1/+1..+4/+5..+8), multiparious cows, weeks +5 through +8, two-trial comparison with Control Trial #2 (Table 24)
  True Protein Content of Produced Milk: 2.62 weight %
Pre/Post Trial #1 (150/125/100 g/day) versus Control Trial #2, multiparious cows, weeks +1 through +4 (Table 24)
  increase in true protein concentration in milk: 4.6%
Pre/Post Trial #1 (150/125/100 g/day) versus Control Trial #2, multiparious cows, weeks +1 through +8 (Table 24)
  increase in true protein concentration in milk: 2.8%
Pre/Post Trial #2 (75/75/100 g/day in wk −3..−1/+1..+4/+5..+8), multiparious cows, week +1
  True Protein Content of Produced Milk: 3.96 weight %
Pre/Post Trial #2 (75/75/100 g/day in wk −3..−1/+1..+4/+5..+8), multiparious cows, week +2
  True Protein Content of Produced Milk: 3.13 weight %
Pre/Post Trial #2 (75/75/100 g/day in wk −3..−1/+1..+4/+5..+8), multiparious cows, week +3
  True Protein Content of Produced Milk: 2.89 weight %
Pre/Post Trial #2 (75/75/100 g/day in wk −3..−1/+1..+4/+5..+8), multiparious cows, week +4
  True Protein Content of Produced Milk: 2.77^b weight %
Pre/Post Trial #2 (75/75/100 g/day in wk −3..−1/+1..+4/+5..+8), multiparious cows, week +5
  True Protein Content of Produced Milk: 2.70 weight %
Pre/Post Trial #2 (75/75/100 g/day in wk −3..−1/+1..+4/+5..+8), multiparious cows, week +6
  True Protein Content of Produced Milk: 2.69 weight %
Pre/Post Trial #2 (75/75/100 g/day in wk −3..−1/+1..+4/+5..+8), multiparious cows, week +7
  True Protein Content of Produced Milk: 2.64 weight %
Pre/Post Trial #2 (75/75/100 g/day in wk −3..−1/+1..+4/+5..+8), multiparious cows, week +8
  True Protein Content of Produced Milk: 2.61 weight %
Pre/Post Trial #2 (75/75/100 g/day in wk −3..−1/+1..+4/+5..+8), multiparious cows, weeks +1 through +4
  True Protein Content of Produced Milk: 3.18 weight %
Pre/Post Trial #2 (75/75/100 g/day in wk −3..−1/+1..+4/+5..+8), multiparious cows, weeks +1 through +8
  True Protein Content of Produced Milk: 2.91 weight %
Pre/Post Trial #2 (75/75/100 g/day in wk −3..−1/+1..+4/+5..+8), multiparious cows, weeks +5 through +8
  True Protein Content of Produced Milk: 2.66 weight %
Average of means of Pre-Partum Trial #2, Pre/Post Trial #1 and Pre/Post Trial #2 versus Control Trial #2, multiparious cows, weeks +1 through +4
  increase in true protein concentration in milk: 3.8%
Average of means of Pre-Partum Trial #2, Pre/Post Trial #1 and Pre/Post Trial #2 versus Control Trial #2, multiparious cows, weeks +1 through +8
  increase in true protein concentration in milk: 2.5%
